Drawing on publication PMC8309073, “Collagenase and Tyrosinase Inhibitory Effect of Isolated Constituents from the Moss Polytrichum formosum” (Plants, 2021), this text covers inhibition and IC50 for two molecules.

For assay [1], the target named is T1, mushroom tyrosinase (Agaricus bisporus, UniProt C7FF04).
T1 construct: gene PPO3; T3824-250KU, Sigma-Aldrich
The assay can be described thus: spectrophotometric L-tyrosine to dopachrome assay, […] nm; also retained in Target Binding (RA […], reference). Format: biochemical.

Assay [2] addresses collagenase. The experiment in a line: FALGPA hydrolysis assay; also retained in Target Binding ultrafiltration UHPLC-MS (RA […]). Format: biochemical, Hathewaya histolytica.
Assay [3] has as its target collagenase. The experiment in a line: FALGPA hydrolysis assay (compound purity […]); also retained in Target Binding ultrafiltration UHPLC-MS (RA […]). Format: biochemical, Hathewaya histolytica.

T1 sequence (C7FF04 2-392): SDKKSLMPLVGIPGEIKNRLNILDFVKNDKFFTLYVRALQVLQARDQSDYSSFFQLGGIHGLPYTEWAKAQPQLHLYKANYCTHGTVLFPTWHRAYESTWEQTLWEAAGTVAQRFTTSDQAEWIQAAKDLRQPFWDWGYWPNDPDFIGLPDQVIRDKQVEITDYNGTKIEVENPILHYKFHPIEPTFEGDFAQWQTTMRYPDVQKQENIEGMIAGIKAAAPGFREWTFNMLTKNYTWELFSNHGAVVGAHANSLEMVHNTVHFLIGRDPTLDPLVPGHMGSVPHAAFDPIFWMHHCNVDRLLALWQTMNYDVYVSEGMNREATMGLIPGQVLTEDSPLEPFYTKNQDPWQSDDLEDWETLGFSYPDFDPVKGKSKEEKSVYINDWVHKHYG

What is called inhibition is the drop in the measured response relative to a control, in per cent. Low readings indicate a response near the control, high ones a response far below the control. By IC50 is commonly meant the concentration at which inhibition is half-maximal. Read a high IC50 as a need for much substance. Regarding `O=C1C[C@@H]2c3ccccc3O[C@H]3c4cc(O)ccc4-c4c(O)cc(O)c1c4[C@H]23` [compound 1, ohioensin A], in assay [1], at 200 µM the inhibition was 30%. In assay [2], the IC50 stood at 72 µM.

`O=C1C[C@@H]2c3ccccc3O[C@H]3c4ccc(O)c(O)c4-c4c(O)cc(O)c1c4[C@H]23` [compound 2, nor-ohioensin D] came in with an IC50 in assay [3] of 167 µM.
